Test results from the supplement of paper PMC10307832.

What was measured:
Assay in all cases: relative viability (nuclei count vs DMSO), 5 days (fraction); higher = more cells survive
DM3189 + Pemetrexed = compound: C1CN(CCN1)C2=CC=C(C=C2)C3=CN4C(=C(C=N4)C5=CC=NC6=CC=CC=C56)N=C3 [DM3189] + Nc1nc2[nH]cc(CCc3ccc(C(=O)N[C@@H](CCC(=O)O)C(=O)O)cc3)c2c(=O)[nH]1 [Pemetrexed] (partner 0.2 µM)
Procedure, shortened: (§1)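 Relative viability was taken as the ratio of nuclei in treated wells to nuclei in vehicle wells. Lung cancer cell lines in 1536-well plates received compounds by pin tool one day after seeding, either one drug alone or a fixed anchor-drug dose plus five library-drug doses (not always all listed) in √10 steps. Nuclei were counted on 4× images after 5 days of treatment, and values are medians of duplicate plates.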

DM3189 + Foretinib = compound: C1CN(CCN1)C2=CC=C(C=C2)C3=CN4C(=C(C=N4)C5=CC=NC6=CC=CC=C56)N=C3 [DM3189] + COc1cc2c(Oc3ccc(NC(=O)C4(C(=O)Nc5ccc(F)cc5)CC4)cc3F)ccnc2cc1OCCCN1CCOCC1 [Foretinib] (partner 0.25 µM)
Procedure, shortened: as §1

DM3189 + Navitoclax = compound: C1CN(CCN1)C2=CC=C(C=C2)C3=CN4C(=C(C=N4)C5=CC=NC6=CC=CC=C56)N=C3 [DM3189] + CC1(C)CCC(c2ccc(Cl)cc2)=C(CN2CCN(c3ccc(C(=O)NS(=O)(=O)c4ccc(N[C@H](CCN5CCOCC5)CSc5ccccc5)c(S(=O)(=O)C(F)(F)F)c4)cc3)CC2)C1 [Navitoclax] (partner 0.5 µM)
Procedure, shortened: as §1

DM3189 + OSI-027 = compound: C1CN(CCN1)C2=CC=C(C=C2)C3=CN4C(=C(C=N4)C5=CC=NC6=CC=CC=C56)N=C3 [DM3189] + COc1cccc2cc(-c3nc([C@H]4CC[C@H](C(=O)O)CC4)n4ncnc(N)c34)[nH]c12 [OSI-027] (partner 0.5 µM)
Procedure, shortened: as §1

DM3189 + Tozasertib = compound: C1CN(CCN1)C2=CC=C(C=C2)C3=CN4C(=C(C=N4)C5=CC=NC6=CC=CC=C56)N=C3 [DM3189] + Cc1cc(Nc2cc(N3CCN(C)CC3)nc(Sc3ccc(NC(=O)C4CC4)cc3)n2)n[nH]1 [Tozasertib] (partner 0.1 µM)
Procedure, shortened: as §1

Row | Cell Line | relative viability (DM3189 + Pemetrexed; first compound 0.08 µM) | relative viability (DM3189 + Pemetrexed; first compound 0.253 µM) | relative viability (DM3189 + Pemetrexed; first compound 0.8 µM) | relative viability (DM3189 + Pemetrexed; first compound 2.53 µM) | relative viability (DM3189 + Foretinib; first compound 0.08 µM) | relative viability (DM3189 + Foretinib; first compound 0.253 µM) | relative viability (DM3189 + Foretinib; first compound 0.8 µM) | relative viability (DM3189 + Foretinib; first compound 2.53 µM) | relative viability (DM3189 + Navitoclax; first compound 0.08 µM) | relative viability (DM3189 + Navitoclax; first compound 0.253 µM) | relative viability (DM3189 + Navitoclax; first compound 0.8 µM) | relative viability (DM3189 + Navitoclax; first compound 2.53 µM) | relative viability (DM3189 + OSI-027; first compound 0.08 µM) | relative viability (DM3189 + OSI-027; first compound 0.253 µM) | relative viability (DM3189 + OSI-027; first compound 0.8 µM) | relative viability (DM3189 + OSI-027; first compound 2.53 µM) | relative viability (DM3189 + Tozasertib; first compound 0.08 µM) | relative viability (DM3189 + Tozasertib; first compound 0.253 µM) | relative viability (DM3189 + Tozasertib; first compound 0.8 µM) | relative viability (DM3189 + Tozasertib; first compound 2.53 µM)
1 | NCI-H1755 | 0.418 | 0.555 | 0.502 | 0.395 | 0.914 | 0.855 | 0.718 | 0.826 | 0.926 | 0.904 | 0.701 | 0.965 | 0.732 | 0.688 | 0.574 | 0.786 | 0.475 | 0.493 | 0.453 | 0.524
2 | NCI-H1793 | 1.03 | 1.18 | 1.1 | 1.47 | 0.768 | 0.847 | 0.905 | 0.783 | 0.422 | 0.396 | 0.421 | 0.478 | 0.279 | 0.247 | 0.245 | 0.319 | 0.33 | 0.321 | 0.294 | 0.357
3 | NCI-H1915 | 0.468 | 0.471 | 0.454 | 0.448 | 1.09 | 1.07 | 0.875 | 1.03 | 0.772 | 0.777 | 0.729 | 0.857 | 0.823 | 0.62 | 0.543 | 0.553 | 0.455 | 0.431 | 0.402 | 0.404
4 | NCI-H1944 | 0.661 | 0.603 | 0.603 | 0.675 | 0.93 | 0.81 | – | 0.88 | 1.07 | 1.03 | – | 1.15 | 0.513 | 0.397 | – | 0.461 | 0.275 | 0.273 | – | 0.267
5 | NCI-H1975 | 0.27 | 0.281 | 0.266 | 0.278 | 1.02 | 0.871 | 0.898 | 0.782 | 1.16 | 1.08 | 0.858 | 0.821 | 1 | 0.627 | 0.666 | 0.514 | 0.652 | 0.693 | 0.649 | 0.541
6 | NCI-H1993 | 0.622 | 0.626 | 0.545 | 0.541 | 0.766 | 0.744 | 0.672 | 0.907 | – | 0.883 | 0.646 | 0.999 | 0.541 | 0.49 | 0.476 | 0.506 | 0.58 | 0.584 | 0.554 | 0.637
7 | NCI-H2009 | 1.07 | 0.988 | 0.985 | 1 | 1.22 | 1.16 | 1.14 | 1.25 | 1.17 | 1.19 | 1.06 | 1.23 | 0.684 | 0.577 | 0.553 | 0.579 | 0.678 | 0.69 | 0.67 | 0.673
8 | NCI-H2023 | 0.235 | 0.231 | 0.236 | 0.178 | 0.938 | 0.867 | 0.857 | 0.552 | 0.992 | 1.04 | 0.909 | 0.842 | 0.428 | 0.388 | 0.295 | 0.398 | 0.442 | 0.304 | 0.259 | 0.266
9 | NCI-H2085 | 0.885 | 0.886 | 0.941 | 0.869 | 0.982 | 1.02 | 0.925 | 1.01 | 1.2 | 1.16 | 1.19 | 1.11 | 0.835 | 0.721 | 0.722 | 0.864 | 0.903 | 0.747 | 0.898 | 0.951
10 | NCI-H2087 | 0.724 | 0.659 | 0.67 | 0.573 | 1.28 | 1.18 | 1.07 | 0.969 | 1.09 | 0.933 | 1.04 | 1.08 | 0.718 | 0.462 | 0.449 | 0.601 | 0.248 | 0.277 | 0.264 | 0.162
11 | NCI-H2126 | 0.717 | 0.624 | 0.565 | 0.652 | 1.14 | 1.11 | 1.18 | 1.16 | 0.827 | 0.873 | 0.756 | 0.861 | 0.79 | 0.704 | 0.67 | 0.645 | 0.823 | 0.767 | 0.739 | 0.803
12 | NCI-H2170 | 0.282 | 0.276 | 0.373 | 0.248 | 0.985 | 1.01 | 0.883 | 1.16 | 0.637 | 0.541 | 0.541 | 0.711 | 0.863 | 0.76 | 0.768 | 0.686 | 0.84 | 0.651 | 0.525 | 0.71
13 | NCI-H2228 | 0.365 | 0.315 | 0.361 | 0.226 | 0.802 | 0.828 | 0.7 | 0.517 | 0.96 | 0.952 | 1.1 | 1.3 | 0.73 | 0.517 | 0.434 | 0.322 | 0.236 | 0.207 | 0.227 | 0.156
14 | NCI-H2347 | 0.473 | 0.51 | 0.432 | 0.518 | 1.24 | 1.29 | 0.957 | 0.843 | 0.861 | 0.819 | 0.743 | 0.763 | 0.486 | 0.337 | 0.455 | 0.335 | 0.464 | 0.475 | 0.521 | 0.515
15 | NCI-H2405 | 1.1 | 0.917 | 0.997 | 1.06 | 1.04 | 1.06 | 1.02 | 1.05 | 0.758 | 0.802 | 0.873 | 0.89 | 0.584 | 0.608 | 0.636 | 0.724 | 0.791 | 0.7 | 0.741 | 0.692
